Data taken from publication PMC10923054, “Antiplasmodial peptaibols act through membrane directed mechanisms” (Cell Chemical Biology, 2024).
Square brackets hold non-standard residues; d marks the D form. Peptide text beside a SMILES is read from it. Phe(ol) = N[C@H](CO)Cc1ccccc1; Leu(ol) = CC(C)C[C@H](N)CO; dIva = CC[C@@](C)(N)C(=O)O; Aib = CC(C)(N)C(=O)O

How the values were obtained:
P. falciparum 3D7 = experiment: Phenotypic screen: asexual blood stage EC50 determination (SYBR Green I); type: cell-based; conditions: CQ sensitive line, asynchronous culture, 72 h, mean ± SEM, biological triplicate
Procedure: Asexual blood stage parasites grown in the Chakrabarti laboratory were cultured based on a protocol by Trager and Jensen[57] with some modifications.[35] Culture was maintained at 4% hematocrit with human A+ whole blood obtained from the Florida OneBlood, in RPMI 1640 supplemented with 25 mM HEPES pH 7.4, 26 mM NaHCO3, 2% dextrose, 15 mg/L hypoxanthine, 25 mg/L gentamycin, and 0.5% Albumax II. Incubator conditions remained at 37°C and 5% CO2, 5% O2, 90% N2, or 95% air. For comparison screening using serum vs Albumax II, culture media was changed from RPMI with 0.5% Albumax II to RPMI with 10% human serum and maintained for a minimum of 2 weeks prior to assay use.
Inhibitor EC50 determination in 3D7 and Dd2 was performed as discussed in,[35] based on established protocols.[60] Assays utilized asynchronous culture at 1% parasitemia, 1% hematocrit. Culture was incubated with compound dilutions for 72 h followed by freezing at −80°C to promote lysis, then thawing and incubation for 45 min–1 h with 1× SYBR Green I in a lysis buffer (20 mM Tris-HCL, 0.08% saponin, 5 mM EDTA, and 0.8% Triton X-100). Fluorescence was read 485 nm excitation, 530 nm emission on a Synergy Neo2 multimode reader (BioTek Winsooki, VT) and EC50 curves were generated using CDD Vault (https://www.collaborativedrug.com/).

[1] = tested on: digestive vacuole of functionally isolated 3D7 trophozoites; experiment: FITC-dextran measurements of DV pH and membrane integrity; on DV Alkylization: key: -: A '–' indicates a negative finding; a single '+' indicates a positive finding; a double '++' indicates a strong positive finding; type: cell-based, P. falciparum; conditions: for localization of membrane impermeable dye FITC-dextran (DV membrane leakage): microscopic analysis after 2 h; for DV Alkylization: Figure 7A summary
Procedure: Preloading of 3D7 parasites with FITC-dextran was done as outlined in Saliba et al.[68] In summary, 2.25 mL of pre-warmed lysis buffer (5 mM HEPES, 11 mM glucose, 2 mM MgCl2, 2 mM ATP, and 110 μM FITC-dextran, pH 7.4) was added to 1 mL of packed RBCs and incubated at 30°C for 10 min. After, 2.25 mL of resealing buffer (280 mM NaCl, 40 mM KCl, 11 mM glucose, and 1 mM HEPES, pH 7.4) was added and cells were pelleted at 1,200 x g for 5 min then washed 3 x in RPMI. FITC-dextran loaded RBCs were then resuspended with 1 mL of synchronous trophozoite stage parasites (10–20%) parasitemia, at 4% hematocrit. Cultures were maintained in 50 mL for a minimum of 2 life cycles, until parasitemia reached >15%.
For assay use, trophozoite stage parasites were functionally isolated as described by van Schalkwyk et al. and Kirk et al. with some modifications.[69]^,[70] Parasites were resuspended in warm media with 0.05% saponin then centrifuged immediately at 2,060 x g for 10 min. Cells were washed in RPMI media 3 x then resuspended in HEPES buffered saline (100 mM KCl, 30 mM NaCl, 2 mM MgCl2, and 5 mM HEPES, pH 7.3) at 5 x 10^6 cells/mL. […] Samples were collected at 0.5, 1, and 2 h for flow cytometry using a CytoFLEX S (Beckman Coulter, Brea, CA), excitation 488 nm, emissions 530 and 585 nm. Gating was performed in FlowJo Version 10 using FITC-dextran loaded and unloaded controls. The ratio (Rgy) of the fluorescent intensity values was then graphed using Graph Pad Prism Version 9. For microscopic analysis, samples were collected after 2 h of treatment and imaged on a Leica TCS SP5 II confocal microscope (Leica Microsystems, Wetzlar, DE.) at excitation 488, emission 520 nm with a 30 nm bandpass filter, then processed with LAS-X software. Significance determined using a one-way ANOVA multiple comparisons test in GraphPad Prism Version 9.0.

[2] = Electrophysiology: reconstitution into planar lipid bilayers; conditions: for channel activity in planar lipid bilayers: 1 μM peptaibol, DPhPc bilayers, pH 7.0 saline; for Channel Induction: Figure 7A summary; on Channel Induction: key: -: A '–' indicates a negative finding; a single '+' indicates a positive finding; a double '++' indicates a strong positive finding
Procedure: Ion channel formation by peptaibols was evaluated with reconstitution into planar lipid bilayers using the Orbit Mini workstation (Nanion). Bilayers were formed from a 5 mg/ml decane solution of 1,2-diphytanoyl-sn-glycero-3-phosphocholine (DPhPc, Avanti Polar Lipids) across 100 μm diameter orifices in the MECA 4 recording chip with 4 microcavities. The bilayers were bathed with saline (in mM: 70 NaCl, 70 KCl, 2.5 MgCl2, 2 CaCl2, 10 HEPES, 10 MES, 10 glucose, pH 7.0) at both faces, with resistances of up to 500 GΩ before channel incorporation. Peptaibols were added from a 10 mM DMSO stock to the cis chamber at a final 1 μM concentration; spontaneous incorporation into the bilayer typically occurred within 10–15 min. Recordings were acquired at 20 kHz and filtered at 1.25 kHz.

[3] = 5 x EC50, isolated trophozoites

Row | Structure (SMILES) | EC50 (P. falciparum 3D7) | pH dependent fluorescence ratio (FI585/FI530), DV pH, after 0.5 h [1, 3] | localization of membrane impermeable dye FITC-dextran (DV membrane leakage) ([1]; 5 x EC50) | DV Alkylization [1] | channel activity in planar lipid bilayers [2] | Channel Induction [2] | pH dependent fluorescence ratio (FI585/FI530), DV pH, 0.5, 1 or 2 h [1, 3] | pH dependent fluorescence ratio (FI585/FI530), DV pH, after 1 h [1, 3] | pH dependent fluorescence ratio (FI585/FI530), DV pH, after 2 h [1, 3]
1 | CC(=O)NC(C)(C)C(=O)N1CCC[C@H]1C(=O)NC(C)(C)C(=O)N[C@@H](C)C(=O)NC(C)(C)C(=O)N[C@@H](C)C(=O)N[C@@H](CCC(N)=O)C(=O)NC(C)(C)C(=O)N[C@H](C(=O)NC(C)(C)C(=O)NCC(=O)N[C@@H](CC(C)C)C(=O)NC(C)(C)C(=O)N1CCC[C@H]1C(=O)N[C@H](C(=O)NC(C)(C)C(=O)NC(C)(C)C(=O)N[C@@H](CCC(=O)O)C(=O)N[C@@H](CCC(N)=O)C(=O)N[C@H](CO)Cc1ccccc1)C(C)C)C(C)C [Alamethicin, reference compound] (Ac-[Aib]P[Aib]A[Aib]AQ[Aib]V[Aib]GL[Aib]PV[Aib][Aib]EQ[Phe(ol)]; N-terminus assumed) | 540 ± 30 nM | Rapid alkalization | no longer showed full colocalization of the dye within the DV |  |  |  |  |  | 
2 | CC[C@@](C)(NC(=O)C(C)(C)NC(=O)[C@H](CC(C)C)NC(=O)[C@@H]1CCCN1C(=O)C(C)(C)NC(=O)[C@H](CC(C)C)NC(=O)CNC(=O)C(C)(C)NC(=O)[C@@H](NC(=O)C(C)(C)NC(=O)[C@H](CCC(N)=O)NC(=O)C(C)(C)NC(=O)C(C)(C)NC(=O)[C@H](C)NC(=O)CNC(=O)C(C)(C)NC(C)=O)C(C)C)C(=O)N[C@@H](CCC(N)=O)C(=O)N[C@H](CO)CC(C)C [TC HA-II, trichorzin HA II] (Ac-[Aib]GA[Aib][Aib]Q[Aib]V[Aib]GL[Aib]PL[Aib][dIva]Q[Leu(ol)]) | 390 ± 90 nM |  | no longer showed full colocalization of the dye within the DV | ++ | did not reveal channel activity | - |  |  | 
3 | CC[C@H](C)[C@H](NC(=O)[C@H](C)NC(=O)[C@@H]1CCCN1C(=O)C(C)(C)NC(=O)[C@H](CC(C)C)NC(=O)[C@H](CCC(N)=O)NC(=O)[C@@](C)(CC)NC(C)=O)C(=O)NC(C)(C)C(=O)N1CCC[C@H]1C(=O)N[C@](C)(CC)C(=O)N[C@@H](CC(C)C)C(=O)NC(C)(C)C(=O)N1CCC[C@H]1C(=O)N[C@H](CO)CC(C)C [HZ NPDG-H, harzianin NPDG H] (Ac-[dIva]QL[Aib]PAI[Aib]P[dIva]L[Aib]P[Leu(ol)]) | 120 ± 10 nM |  | not seen | - | did not induce detectable channel activity | - | No significant (p > 0.05) change |  | 
4 | CC[C@H](C)[C@H](NC(=O)[C@H](CC(C)C)NC(=O)[C@H](CCC(N)=O)NC(=O)[C@@](C)(CC)NC(C)=O)C(=O)NC(C)(C)C(=O)N1CCC[C@H]1C(=O)N[C@](C)(CC)C(=O)N[C@@H](CC(C)C)C(=O)NC(C)(C)C(=O)N1CCC[C@H]1C(=O)N[C@H](CO)CC(C)C [HZ NPDG-I, harzianin NPDG I] (Ac-[dIva]QLI[Aib]P[dIva]L[Aib]P[Leu(ol)]) | 120 ± 10 nM |  | no longer showed full colocalization of the dye within the DV | + | reproducibly induced unambiguous channel-like activity | + |  | moderate increase | significant (p = 0.0015) increase
